Entries after “also recorded” stand apart in the source; their conditions may differ.
Experiments:
[1] = target: T1, BRAF^G466V (H1666 cells, heterozygous, Class 3) (Homo sapiens, UniProt P15056, G466V); experiment: BRAF degradation by immunoblot in H1666 cells; type: cell-based
T1 construct: endogenous in cells; host or cells: H1666
Method: (§1) Cells were plated in 6 well dishes (5 × 10^5–8 × 10^5 cells) and allowed to attach overnight. […] The plates were then placed on ice and washed 1x with chilled PBS and lysed in buffer containing 25 mM Tris-HCl [pH 7.4], 0.25% sodium deoxycholate, 150 mM NaCl, 1% Triton X-100, supplemented with protease inhibitors (1x Roche protease inhibitor cocktail) and phosphatase inhibitors (10 mM NaF, 1 mM Na3OV4, and 20 mM β-glycerophosphate). Lysates were then cleared at 21,000 g for 10 min at 4 °C. Protein concentrations of the supernatants were then quantified using a Pierce BCA Protein Assay. 12–40 µg of protein were separated using a gradient (4–20%) Criterion TGX precast gel and transferred unto a nitrocellulose membrane. The membranes were then blocked in 5% non-fat milk in TBST (Tris-buffered Saline with Tween 20) for 1 h before probing with the indicated primary antibody overnight. Membranes were imaged using Bio-Rad Image Lab software using ECL prime detection reagent (GE Healthcare, RPN2232 or ThermoScientific, 34095).
(§2) Western blot data was quantified by using the band feature in Image Lab, and values were averaged and analyzed in GraphPad Prism. DC50 and DMAX values were fitted using a three parameter [inhibitor] versus response and reported directly from the Prism output. Mean ± SD and unpaired t-tests were performed in GraphPad Prism.

[2] = target: T2, BRAF^G466V (CAL-12-T cells, homozygous, Class 3) (Homo sapiens, UniProt P15056, G466V); experiment: BRAF degradation by immunoblot in CAL-12-T cells; type: cell-based
T2 construct: endogenous in cells; host or cells: CAL-12-T
Method: as §1, §2

[3] = test system: VBC:PROTAC:BRAF ternary complex (V5-BRAF^V600E vs V5-BRAF^WT, NIH3T3 lysates); experiment: Cell lysate based ternary complex (GST-VBC pulldown) assay; type: binding; conditions: 5000 nM SJF-0628
Method: Glutathione sepharose 4B was washed twice with water and then blocked for 1 h at room temperature with 10% BSA in TBST. The beads were then washed again twice with TBST and once with wash buffer (50 mM HEPES pH 7.5, 150 mM NaCl, 1 mM DTT, 0.01% NP40, 5 mM MgCl2, 10% glycerol) and then purified GST-VBC was immobilized for 2 h at 4 °C at 2.5 pmole per μL of beads. The beads were then washed thrice with wash buffer, resuspended and BRAF WT or V600E protein was added at 500 nM per 50 μL reaction with 5 μL of beads. The bead:BRAF mixture was then aliquoted to separate tubes and PROTAC was added at the indicated concentration (PROTACs were intermediately diluted in 50% DMSO) and this was incubated at 4 °C for 2 h. The beads were washed 4 times with 1 mL column of TBST and then eluted with SDS loading buffer.
For experiments in which the input substrate is a whole cell lysate, the sample was prepared as follows: […] of confluent NIH3T3 cells were doxycycline induced overnight, after which the cells were washed with DPBS and lysed using lysis buffer (50 mM Tris-HCl, pH 7.4, 015 M NaCl, 1 mM EDTA,1% NP40, 10% glycerol). The lysate was cleared by centrifugation and then added to the beads as an input substrate, as above.

[4] = test system: CAL-12-T cells (Class 3, BRAF^G466V); experiment: Cell proliferation (MTS) assay; type: cell-based; conditions: 5 days
Method: […] 2 mg/ml MTS (Promega Corp., Madison, WI: G5421) and 25 μM phenazine methosulfate (Sigma, St. Louis, MO) were combined 19:1 and then added to cells (1 volume combined reagent: 5 volumes medium) and incubated for 1–3 h. Mitochondrial reduction of MTS to the formazan derivative was monitored by measuring the medium’s absorbance at 480 nm using a Perkin Elmer Envision Plate reader.

[5] = target: T3, V5-tagged BRAF^WT (NIH3T3 cells) (Homo sapiens, UniProt P15056); experiment: V5-BRAF degradation by immunoblot in inducible NIH3T3 cells; type: cell-based
T3 construct: expressed in transfected cells; host or cells: NIH3T3 (mouse fibroblasts), doxycycline-inducible expression
Method: as §1, §2

[6] = test system: BRAF^WT : Cullin-2 association (NIH3T3 cells); experiment: V5-BRAF immunoprecipitation, Cullin 2 association; type: cell-based; conditions: MEK inhibitor (1 µM cobimetinib, 2 h) pretreated NIH3T3 cells
Method: Doxycycline-induced NIH3T3 cells or 293 T-Rex cells that express indicated BRAF isoform were seeded in 10 cm dishes overnight. […] Cells were then placed on ice, washed with ice-cold 1X PBS, and lysed in 500 µL modified 1X lysis buffer (50 mM Tris-HCl, pH 7.4, 0.15 M NaCl, 1 mM EDTA, 1% NP40, 10% glycerol) containing 5 mM 1,10-phenanthroline monohydrate, 10 mM N-ethylmaleimide, 20 µM PR-619, and 1X protease inhibitor cocktail (Roche). Lysates were spun down at 14,000 × g at 4 °C for 10 min. Equal amounts of lysate was aliquoted onto 20 µL (bed volume) of anti-V5-beads (Sigma, A7345). V5-containing proteins were immunoprecipitated from lysates for 2 h at 4 °C with gentle rotation, after which samples were spun down at 6000 × g at 4 °C for 2 min and the beads were washed 4 times with DPBS. Beads were resuspended in 1X lithium dodecyl sulfate (LDS) sample buffer containing 5% 2-mercaptoethanol (ß-ME). Immunoprecipitated protein was eluted off the beads by heating at 95 °C for 5 min and the supernatant was run on an SDS-PAGE gel and evaluated for the presence of immunoprecipitated V5-tagged proteins, as well as Cullin 2. Input refers to the normalized input lysate loaded onto V5-sepharose beads.

[7] = Body weight in SK-MEL-246 efficacy study; type: in vivo, mice; conditions: either dose (50 mg/kg BID, 100 mg/kg QD)
Method: 10 million SK-MEL-246 cells were subcutaneously implanted in female nu/nu mice. The tumor volumes and mice weights were measured twice a week after the implantation. […] All studies were performed in compliance with institutional guidelines under an Institutional Animal Care and Use Committee (IACUC) approved protocol. Investigators were not blinded when assessing the outcome of the in vivo experiments.

[8] = test system: SK-MEL-246 cells (Class 2, BRAF^G469A); experiment: Cell proliferation (MTS) assay; type: cell-based; conditions: 120 h, 5-day treatment, read-out: EC50, cell growth
[9] = test system: MEK and ERK phosphorylation (SK-MEL-28 cells); experiment: MEK and ERK phosphorylation by immunoblot in SK-MEL-28 cells; type: cell-based
Method: as §1, §2

[10] = test system: p-ERK (CAL-12-T cells); experiment: p-ERK inhibition by immunoblot in CAL-12-T cells; type: cell-based
Method: as §1, §2

T3 sequence (P15056 whole entry): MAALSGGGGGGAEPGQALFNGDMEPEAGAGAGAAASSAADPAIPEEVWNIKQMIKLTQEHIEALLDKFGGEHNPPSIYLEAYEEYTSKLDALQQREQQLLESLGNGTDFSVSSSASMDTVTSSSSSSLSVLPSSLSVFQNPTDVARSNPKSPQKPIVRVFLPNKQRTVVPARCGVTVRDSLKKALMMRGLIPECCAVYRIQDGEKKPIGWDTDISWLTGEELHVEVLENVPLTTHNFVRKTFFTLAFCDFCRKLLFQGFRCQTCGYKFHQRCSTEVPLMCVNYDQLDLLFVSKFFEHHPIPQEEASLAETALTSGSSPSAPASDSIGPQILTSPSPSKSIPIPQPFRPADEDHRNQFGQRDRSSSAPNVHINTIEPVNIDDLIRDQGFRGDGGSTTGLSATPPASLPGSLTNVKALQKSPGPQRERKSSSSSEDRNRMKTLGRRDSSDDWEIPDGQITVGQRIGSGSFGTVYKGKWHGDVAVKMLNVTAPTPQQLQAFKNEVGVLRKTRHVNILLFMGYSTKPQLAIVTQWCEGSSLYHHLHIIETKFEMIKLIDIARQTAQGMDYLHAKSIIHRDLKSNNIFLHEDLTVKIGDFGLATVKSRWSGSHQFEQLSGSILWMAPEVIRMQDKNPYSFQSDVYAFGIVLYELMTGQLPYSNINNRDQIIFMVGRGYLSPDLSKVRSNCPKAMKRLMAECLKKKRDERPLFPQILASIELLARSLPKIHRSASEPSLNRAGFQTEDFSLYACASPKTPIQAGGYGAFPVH
T1 sequence (P15056 2-766 G466V): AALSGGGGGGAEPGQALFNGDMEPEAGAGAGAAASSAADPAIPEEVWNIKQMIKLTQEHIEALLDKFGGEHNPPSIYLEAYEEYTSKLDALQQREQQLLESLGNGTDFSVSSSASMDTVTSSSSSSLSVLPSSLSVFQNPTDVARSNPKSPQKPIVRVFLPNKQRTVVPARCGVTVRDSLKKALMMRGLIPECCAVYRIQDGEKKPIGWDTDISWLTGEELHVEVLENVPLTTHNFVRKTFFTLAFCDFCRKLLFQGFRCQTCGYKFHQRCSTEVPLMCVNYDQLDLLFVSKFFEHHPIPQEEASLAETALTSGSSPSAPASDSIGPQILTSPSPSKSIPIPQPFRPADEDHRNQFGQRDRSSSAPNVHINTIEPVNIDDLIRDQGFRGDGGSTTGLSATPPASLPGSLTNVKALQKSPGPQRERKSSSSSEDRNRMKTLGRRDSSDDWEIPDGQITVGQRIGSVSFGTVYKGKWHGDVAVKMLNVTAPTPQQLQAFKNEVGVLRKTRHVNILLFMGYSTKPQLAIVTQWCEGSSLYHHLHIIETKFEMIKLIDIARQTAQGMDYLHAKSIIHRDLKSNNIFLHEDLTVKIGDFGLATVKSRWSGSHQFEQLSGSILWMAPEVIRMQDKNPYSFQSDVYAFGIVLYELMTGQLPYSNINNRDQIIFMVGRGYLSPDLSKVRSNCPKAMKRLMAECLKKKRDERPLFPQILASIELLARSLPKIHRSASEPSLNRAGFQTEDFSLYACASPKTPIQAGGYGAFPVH
T2 sequence (P15056 whole entry G466V): as the sequence (P15056 whole entry) above, with G466V counted along it

With CCCS(=O)(=O)Nc1ccc(F)c(C(=O)c2c[nH]c3ncc(-c4ccc(N5CCN(CC(=O)NC(C(=O)N6CC(O)CC6C(=O)NCc6ccc(-c7scnc7C)cc6)C(C)(C)C)CC5)cc4)cc23)c1F (stereo not drawn) [SJF-0628] the DC50 [1] was 29 nM, the Dmax ([1]; NCI-H1666) was over 80% and the DC50 [2] was 23 nM. The Dmax [2] was over 90%, the “ternary complex with VHL, BRAF^V600E relative to BRAF^WT” value [3] was ~ 3 fold and the “inhibition of cell growth / effect on cell viability” value [4] was “minimal inhibition of cell growth; also recorded: minimal effect on cell viability”. The “PROTAC-mediated BRAF^WT degradation” value ([5]; 1 µM PD0325901 pre-treatment 3 h, SJF-0628 1 μM 20 h) was ~ 80%, the “degradation of BRAF^WT by the PROTAC” value ([5]; 1 µM SCH772984 pre-treatment 3 h, SJF-0628 20 h) was ~ 90% and the “expression of WT RAF family members” value ([5]; doxycycline-inducible V5-BRAF, no pre-treatment) was “spared BRAF^WT, ARAF, and CRAF”. For the same compound, the “increase in PROTAC-induced Cullin-2 association with BRAF^WT” value [6] was 4 fold, the body weight loss [7] was “did not observe a significant body weight loss” and the EC50 [8] was 45 ± 1.11 nM. The “concentration giving maximal inhibition of MEK and ERK phosphorylation / maximal suppression of p-ERK” value [9] was 10 nM, the “increase in potency of the PROTAC over epimer SJF-0661 (p-ERK suppression)” value [9] was 10 fold and the “inhibition of p-ERK” value [10] was over 70%.

— PMC7876048, “Mutant-selective degradation by BRAF-targeting PROTACs” (Nature Communications, 2021)
